These are literature values, as cited in patent US20260098286A1, “Low Dose Psilocybin in Foodstuff and Microbes for Same” (ATX PHARMERS LLC, priority 2021, published 2026).

For data set [1] the following is noted: adults.
The subject of data set [2] is human serotonin-related receptors.
The conditions of data set [3]: degrades in the presence of oxygen.
Test in data set [4]: not given
The source holds these as a separate data set.

The conditions of data set [5]: weight per weight basis.
The conditions of data set [6]: in vivo.

As to `CN(C)CCc1c[nH]c2cccc(O)c12` [psilocin], the “blood plasma concentration at which psychological effects occur” value in data set [1] is given as 4-6 μg/liter. The “psilocin concentrations in the plasma (average)” value in data set [1] (within 2 hours after single 15 mg oral psilocybin dose) is recorded as “about 8 μg/liter”. In data set [2], the “number of human serotonin-related receptors bound” value is “over 15”. Also, the stability in solution entry in data set [3] is reported as “relatively unstable”.

As for `CN(C)CCc1c[nH]c2cccc(OP(=O)(O)O)c12` [psilocybin, 4-phosphoryloxy-N,N-dimethyltryptamine], the “effects begin after ingestion” value (after ingestion) is 10 to 40 min. Also, under “depending on dose, species, and individual metabolism”, the effects last was 2 to 6 h. The half-life of psilocybin (taken orally) was 2.72 ± 1.07 h. In addition, in data set [4] (after 7 days), the “detectability in the urine” value is on record as “still detectable”. Further, the “ingested psilocybin absorbed through the stomach and intestine” value in data set [4] (animal studies) is recorded as “about 50%”. For the same compound, in data set [4] (within 24 hours), the “absorbed psilocybin excreted in the bile and feces” value is listed as 15-20%; the “absorbed psilocybin excreted into the urine” value is “about 65%”. Further, in data set [5], the “potency relative to LSD (times less potent)” value is recorded as “about 100 times”. Besides, the toxicity result in data set [6] is reported as “low toxicity”.
